Earlier results, collected in patent US11946927B2, “Process and system for identifying individuals having a high risk of inflammatory bowel disease and a method of treatment” (MUSIDORA BIOTECHNOLOGY LLC, priority 2016, dated 2024).

System: patients with active UC

Nc1ccc(O)c(C(=O)O)c1 [mesalamine]
efficacy of mesalamine in active UC (active UC, first-line conventional clinical treatment): 30-40%
clinical treatment failures (mesalamine used to treat active UC, patients with moderate UC, compared to 80% treated with placebo): 60 % of patients
